{"source": "ChEMBL document CHEMBL5532720", "about": "“A Potent Solution for Tumor Growth and Angiogenesis Suppression via an ELR+CXCL-CXCR1/2 Pathway Inhibitor” (ACS Med Chem Lett, 2024)", "key": {"[1]": {"experiment": "Genotoxicity in Salmonella typhimurium TA98 upto 100 uM in presence of S9 fraction by Ames test", "type": "toxicity, subcellular", "conditions": "salmonella enterica subsp. enterica serovar typhimurium, s9, 100 µM"}, "[2]": {"experiment": "Stability in mouse hepatocytes assessed as half-life", "type": "ADME, cell-based, Hepatocyte"}, "[3]": {"experiment": "Stability of compound at pH 2 measured after 24 hrs", "type": "physicochemical", "conditions": "buffer, pH 2, 24 h"}, "[4]": {"target": "Interleukin-8 receptors, CXCR1/CXCR2 (Homo sapiens) (UniProt P25025+P25024)", "experiment": "Inhibition of CXCR1/2 pathway in human A498 cells assessed as reduction in ERK phosphorylation at 2.5 uM incubated for 24 to 48 hrs by immunoblot analysis", "type": "functional, cell-based", "conditions": "time 24-48 hrs"}, "[5]": {"target": "Tyrosine-protein kinase JAK1 (Homo sapiens) (UniProt P23458)", "sequence (P23458 whole entry)": "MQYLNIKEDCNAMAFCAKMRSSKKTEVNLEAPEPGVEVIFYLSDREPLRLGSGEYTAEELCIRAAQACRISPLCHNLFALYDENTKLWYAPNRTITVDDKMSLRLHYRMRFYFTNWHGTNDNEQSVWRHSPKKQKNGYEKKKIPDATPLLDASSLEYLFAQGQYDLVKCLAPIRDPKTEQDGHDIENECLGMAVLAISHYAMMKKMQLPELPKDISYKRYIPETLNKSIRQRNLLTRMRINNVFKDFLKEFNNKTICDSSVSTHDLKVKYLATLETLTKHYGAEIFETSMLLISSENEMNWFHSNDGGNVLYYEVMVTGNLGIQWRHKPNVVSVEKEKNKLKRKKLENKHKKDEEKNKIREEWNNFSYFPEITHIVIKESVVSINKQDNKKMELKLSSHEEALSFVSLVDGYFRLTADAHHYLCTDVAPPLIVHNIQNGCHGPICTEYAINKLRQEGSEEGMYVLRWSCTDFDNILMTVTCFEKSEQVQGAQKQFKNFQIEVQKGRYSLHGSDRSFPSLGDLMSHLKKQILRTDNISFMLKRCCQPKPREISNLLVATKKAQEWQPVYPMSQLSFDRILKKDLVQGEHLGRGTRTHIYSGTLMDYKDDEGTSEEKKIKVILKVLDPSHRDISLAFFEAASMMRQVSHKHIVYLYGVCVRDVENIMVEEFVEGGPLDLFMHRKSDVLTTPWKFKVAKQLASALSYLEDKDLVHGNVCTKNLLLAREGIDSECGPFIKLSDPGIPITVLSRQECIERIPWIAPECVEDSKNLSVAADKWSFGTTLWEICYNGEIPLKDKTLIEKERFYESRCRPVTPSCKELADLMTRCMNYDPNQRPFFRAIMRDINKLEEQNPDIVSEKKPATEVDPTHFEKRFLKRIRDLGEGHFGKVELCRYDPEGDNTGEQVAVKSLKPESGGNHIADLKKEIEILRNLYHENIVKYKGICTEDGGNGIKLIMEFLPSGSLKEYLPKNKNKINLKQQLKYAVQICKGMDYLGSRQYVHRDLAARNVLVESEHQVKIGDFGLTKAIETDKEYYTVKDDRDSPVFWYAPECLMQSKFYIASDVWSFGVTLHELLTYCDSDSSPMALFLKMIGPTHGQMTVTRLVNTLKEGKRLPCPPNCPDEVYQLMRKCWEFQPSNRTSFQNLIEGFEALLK", "experiment": "Inhibition of JAK1 (unknown origin) at 10 uM in presence of ATP at Km concentration"}, "A498": {"test_system": "A498", "experiment": "Inhibition of CXCL1 secretion in human A498 cells at 1 to 2.5 uM incubated for 48 hrs by ELISA", "type": "functional, cell-based", "conditions": "dose 1-2.5 µM"}, "[6]": {"experiment": "Stability in mouse plasma assessed as compound remaining measured after 120 mins", "type": "ADME, cell-free", "conditions": "read-out: Stability"}, "[7]": {"experiment": "Toxicity in athymic nude mouse xenografted with human 786-0 cells assessed as discernible signs at 100 mg/kg, po administered twice daily via gavage for 28 days", "type": "organism-based", "conditions": "in vivo, 672 h, time 28 day"}}, "note": "Activity calls are given as the source filed them. No cut-off for these calls is given here.", "data": [{"smiles": "O=C(Nc1cc(Cl)cc(Cl)c1)Nc1nc2ccc([N+](=O)[O-])cc2s1", "values": [{"measurement": "Activity", "setting": "[1]", "value": "Non-Toxic"}, {"measurement": "half-life", "setting": "[2]", "value": 21.1, "unit": "min"}, {"measurement": "Stability", "setting": "[3]", "value": "Stable"}, {"measurement": "inhibition", "setting": "[4]", "value": "Active"}, {"measurement": "inhibition", "setting": "[5]", "value": "inactive"}, {"measurement": "inhibition", "setting": "A498", "value": "Active"}, {"measurement": "remaining at 2 h", "setting": "[6]", "value": 101, "unit": "%"}, {"measurement": "Activity", "setting": "[7]", "value": "Non-Toxic"}]}]}
